# Key:
# [1] = target: T1, full-length recombinant human NEK7 (Homo sapiens, UniProt Q8TDX7); test: NEK7 enzymatic assay; type: biochemical; conditions: recombinant human NEK7, casein substrate, radiolabelled ATP
# T1 construct: full-length recombinant human NEK7; GST (N); purchased SignalChem NO9-10G; host or cells: Sf9 insect cells (baculovirus)
# Procedure: Casein substrate (from bovine milk, hydrolyzed and partially dephosphorylated mixture of α, β and κ caseins, obtained from Sigma Aldrich, catalogue #C4765, diluted in distilled water to a final concentration of 1 mg/mL) and full-length recombinant human NEK7 (expressed by baculovirus in Sf9 insect cells using a N-terminal GST tag, obtained from SignalChem, catalogue #NO9-10G, 0.1 μg/μL) were mixed in assay buffer (20 mM Hepes pH 7.5, 10 mM MgCl2, 1 mM EGTA, 0.02% Brij35, 0.02 mg/ml BSA, 0.1 mM Na3VO4, 2 mM DTT, 1% DMSO). Compounds of interest (serial 3-fold dilution in DMSO from 10 μM to 0.5 nM) or vehicle (1% DMSO) were dispensed into the kinase reaction mixture by Acoustic technology (Echo550; nanoliter range). After incubation at room temperature for 20 minutes, the kinase reaction was initiated by addition of [^33P]-ATP (specific activity 10 μCi/μl) and the mixture was incubated at room temperature for 2 hours. The reaction was then stopped by spotting the reaction mixture on strips of phosphocellulose P81 paper. Following washing, the radioactivity of the P81 paper was measured and kinase activity data were expressed as the percent remaining kinase activity in test samples compared to vehicle reactions. IC50 values and curve fits were obtained using Prism (GraphPad Software).
# Casein substrate (from bovine milk, hydrolyzed and partially dephosphorylated mixture of α, β and κ caseins, obtained from Sigma Aldrich, catalogue #C4765, diluted in distilled water to a final concentration of 1 mg/mL, assay concentration 20 μM) and full-length recombinant human Nek7 (expressed by baculovirus in Sf9 insect cells using a N-terminal GST tag, obtained from SignalChem, catalogue #NO9-10G, 0.1 μg/μL, assay concentration 70 nM) were mixed in assay buffer (20 mM Hepes pH 7.5, 10 mM MgCl2, 1 mM EGTA, 0.02% Brij35, 0.02 mg/ml BSA, 0.1 mM […], 2 mM DTT, 1% DMSO). Compounds of interest (in DMSO, serial 3-fold dilution from 10 μM to 0.5 nM) or control (1% DMSO) were dispensed into the kinase reaction mixture by Acoustic technology (Echo550; nanoliter range). After incubation at room temperature for 20 minutes, the kinase reaction was initiated by addition of [^32P]-ATP (Specific activity 10 μCi/μl) and the mixture was incubated at room temperature for 2 hours. The reaction was then stopped by spotting the reaction mixture on strips of phosphocellulose P81 paper. Following washing, the radioactivity of the P81 paper was measured and kinase activity data were expressed as the percent remaining kinase activity in test samples compared to vehicle (dimethyl sulfoxide) reactions. IC50 values and curve fits were obtained using Prism (GraphPad Software).
# [2] = test system: IL-1β release; test: IL-1β release assay (THP-1 cells, PMA, LPS, nigericin); type: cell-based; conditions: Homo sapiens, LPS 250 ng/mL, nigericin 20 μM, cleaved IL-1β in media
# Procedure: Approximately 1.5 million THP-1 cells were plated in each well of a 6-well TC plate and incubated with 40 nM PMA in RPMI (10% FBS, 1% Penstrep) for 24 hours. The media was then removed and cells were rested in RPMI (10% FBS, 1% Penstrep) for 24 hours after which time the media was removed and cells were pre-treated for 2 hours with various concentrations of compounds of interest (typically serial 3-fold dilution in RPMI+5% FBS, concentrations ranging from 1 μM to 0.5 nM) in RPMI (5% FBS). The media was again removed and cells were incubated with 250 ng/mL LPS and compounds of interest (concentrations as above) in RMPI (5% FBS) for 2 hours. The media was removed for a last time and cells were incubated with 20 μM nigericin and compounds of interest (concentrations as above) in Opti-MEM for 30 minutes. Cell media was then collected and the amount of cleaved IL-1β was determined using a JESS instrument (Protein Simple) and standard protocols. Cleaved Il-1β antibody was obtained from Cell Signaling (catalogue #83186S) and was used at 1:20 dilution in antibody diluent 2. Protein Simple 1× anti-Rabbit HRP secondary antibody was used along with Protein Simple luminol and peroxide for chemiluminescent detection. Primary antibody incubation time was increased from 30 minutes to 60 minutes.
# T1 sequence (Q8TDX7 whole entry): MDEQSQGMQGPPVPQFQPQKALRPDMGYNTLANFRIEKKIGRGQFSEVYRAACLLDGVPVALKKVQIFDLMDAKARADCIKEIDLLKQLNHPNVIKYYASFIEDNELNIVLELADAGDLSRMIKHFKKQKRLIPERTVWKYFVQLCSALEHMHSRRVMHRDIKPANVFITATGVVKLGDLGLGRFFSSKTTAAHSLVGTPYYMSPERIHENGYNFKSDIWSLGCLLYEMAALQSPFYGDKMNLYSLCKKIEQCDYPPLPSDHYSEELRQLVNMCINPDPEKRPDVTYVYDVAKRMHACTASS
Structure (SMILES),IC50 [1],IC50 [2]
"CN1CCC(n2cc(-c3ccc(NC(=O)Nc4ccc(CN5CCN(C)CC5)c(C(F)(F)F)c4)c(F)c3)c3c(N)ncnc32)CC1 [Example I-21, 1-(4-(4-amino-7-(1-methylpiperidin-4-yl)-7H-pyrrolo[2,3-d]pyrimidin-5-yl)-2-fluorophenyl)-3-(4-((4-methylpiperazin-1-yl)methyl)-3-(trifluoromethyl)phenyl)urea]",< 100 nM,> 1000 nM
"Nc1ncnc2c1c(-c1ccc(NC(=O)Nc3ccc(CN4CCN(CCO)CC4)c(C(F)F)c3)c(F)c1)cn2C1CC1 [Example I-72, 1-(4-(4-amino-7-cyclopropyl-7H-pyrrolo[2,3-d]pyrimidin-5-yl)-2-fluorophenyl)-3-(3-(difluoromethyl)-4-((4-(2-hydroxyethyl)piperazin-1-yl)methyl)phenyl)urea]",< 100 nM,50 to 250 nM
"Nc1ncnc2c1c(-c1ccc(NC(=O)Nc3ccc(CN4CCC(N)CC4)c(C(F)(F)F)c3)c(F)c1)cn2C1CC1 [Example I-75, 1-(4-(4-amino-7-cyclopropyl-7H-pyrrolo[2,3-d]pyrimidin-5-yl)-2-fluorophenyl)-3-(4-((4-aminopiperidin-1-yl)methyl)-3-(trifluoromethyl)phenyl)urea]",100 to 500 nM,> 1000 nM
"CN1CCN(Cc2ccc(NC(=O)Nc3ccc(-c4cn(CC(C)(C)O)c5ncnc(N)c45)cc3F)cc2C(F)(F)F)CC1 [Example I-15, 1-(4-(4-amino-7-(2-hydroxy-2-methylpropyl)-7H-pyrrolo[2,3-d]pyrimidin-5-yl)-2-fluorophenyl)-3-(4-((4-methylpiperazin-1-yl)methyl)-3-(trifluoromethyl)phenyl)urea]",< 100 nM,< 50 nM
"CN1CCN(Cc2ccc(NC(=O)Nc3ccc(-c4cn(C5CCN(S(=O)(=O)C6CC6)CC5)c5ncnc(N)c45)cc3F)cc2C(F)(F)F)CC1 [Example I-102, 1-(4-(4-amino-7-(1-(cyclopropylsulfonyl)piperidin-4-yl)-7H-pyrrolo[2,3-d]pyrimidin-5-yl)-2-fluorophenyl)-3-(4-((4-methylpiperazin-1-yl)methyl)-3-(trifluoromethyl)phenyl)urea]",< 100 nM,50 to 250 nM
"Nc1ncnc2c1c(-c1ccc(NC(=O)Nc3ccc(CN4CCN(CCO)CC4)c(C(F)(F)F)c3)c(F)c1)cn2C1CC1 [Example I-42, 1-(4-(4-amino-7-cyclopropyl-7H-pyrrolo[2,3-d]pyrimidin-5-yl)-2-fluorophenyl)-3-(4-((4-(2-hydroxyethyl)piperazin-1-yl)methyl)-3-(trifluoromethyl)phenyl)urea]",< 100 nM,< 50 nM
"CN1CCN(Cc2ccc(NC(=O)Nc3ccc(-c4cn(C5CC5)c5ncnc(N)c45)cc3F)cc2OC(F)(F)F)CC1 [Example I-78, 1-(4-(4-amino-7-cyclopropyl-7H-pyrrolo[2,3-d]pyrimidin-5-yl)-2-fluorophenyl)-3-(4-((4-methylpiperazin-1-yl)methyl)-3-(trifluoromethoxy)phenyl)urea]",100 to 500 nM,50 to 250 nM
"CS(=O)(=O)CCN1CCN(Cc2ccc(NC(=O)Nc3ccc(-c4cn(C5CC5)c5ncnc(N)c45)cc3F)cc2C(F)(F)F)CC1 [Example I-99, 1-(4-(4-amino-7-cyclopropyl-7H-pyrrolo[2,3-d]pyrimidin-5-yl)-2-fluorophenyl)-3-(4-((4-(2-(methylsulfonyl)ethyl)piperazin-1-yl)methyl)-3-(trifluoromethyl)phenyl)urea]",< 100 nM,50 to 250 nM
"CN(C)C1CCN(Cc2ccc(NC(=O)Nc3ccc(-c4cn(C5CC5)c5ncnc(N)c45)cc3F)cc2C(F)(F)F)C1 (centres unmarked) [Example I-45, 1-(4-(4-amino-7-cyclopropyl-7H-pyrrolo[2,3-d]pyrimidin-5-yl)-2-fluorophenyl)-3-(4-((3-(dimethylamino)pyrrolidin-1-yl)methyl)-3-(trifluoromethyl)phenyl)urea]",< 100 nM,< 50 nM
"CS(=O)(=O)N1CCN(Cc2ccc(NC(=O)Nc3ccc(-c4cn(C5CC5)c5ncnc(N)c45)cc3F)cc2C(F)(F)F)CC1 [Example I-98, 1-(4-(4-amino-7-cyclopropyl-7H-pyrrolo[2,3-d]pyrimidin-5-yl)-2-fluorophenyl)-3-(4-((4-(methylsulfonyl)piperazin-1-yl)methyl)-3-(trifluoromethyl)phenyl)urea]",500 to 2000 nM,> 1000 nM
"CN1CCN(Cc2ccc(NC(=O)Nc3ccc(-c4nn(CC(C)(C)O)c5ncnc(N)c45)cc3F)cc2C(F)(F)F)CC1 [Example I-29, 1-(4-(4-amino-1-(2-hydroxy-2-methylpropyl)-1H-pyrazolo[3,4-d]pyrimidin-3-yl)-2-fluorophenyl)-3-(4-((4-methylpiperazin-1-yl)methyl)-3-(trifluoromethyl)phenyl)urea]",< 100 nM,< 50 nM
"COCCn1cc(-c2ccc(NC(=O)Nc3ccc(CN4CCN(C)CC4)c(C(F)(F)F)c3)c(F)c2)c2c(N)ncnc21 [Example I-81, 1-(4-(4-amino-7-(2-methoxyethyl)-7H-pyrrolo[2,3-d]pyrimidin-5-yl)-2-fluorophenyl)-3-(4-((4-methylpiperazin-1-yl)methyl)-3-(trifluoromethyl)phenyl)urea]",< 100 nM,< 50 nM
"CC(C)N1CCN(Cc2ccc(NC(=O)Nc3ccc(-c4cn(C5CC5)c5ncnc(N)c45)cc3F)cc2C(F)(F)F)CC1 [Example I-63, 1-(4-(4-amino-7-cyclopropyl-7H-pyrrolo[2,3-d]pyrimidin-5-yl)-2-fluorophenyl)-3-(4-((4-isopropylpiperazin-1-yl)methyl)-3-(trifluoromethyl)phenyl)urea]",< 100 nM,< 50 nM
"CN1CCN(C2CC(F)(F)c3cc(NC(=O)Nc4ccc(-c5nn(C6CC6)c6ncnc(N)c56)cc4F)ccc32)CC1 (centres unmarked) [Example I-94, 1-(4-(4-amino-1-cyclopropyl-1H-pyrazolo[3,4-d]pyrimidin-3-yl)-2-fluorophenyl)-3-(3,3-difluoro-1-(4-methylpiperazin-1-yl)-2,3-dihydro-1H-inden-5-yl)urea]",< 100 nM,50 to 250 nM
"CN1CCC(Oc2ncc(NC(=O)Nc3ccc(-c4cn(C5CC5)c5ncnc(N)c45)cc3F)cc2C(F)(F)F)CC1 [Example I-61, 1-(4-(4-amino-7-cyclopropyl-7H-pyrrolo[2,3-d]pyrimidin-5-yl)-2-fluorophenyl)-3-(6-((1-methylpiperidin-4-yl)oxy)-5-(trifluoromethyl)pyridin-3-yl)urea]",,> 1000 nM
CN1CCN(c2ccc(NC(=O)Nc3ccc(-c4cn(C5CC5)c5ncnc(N)c45)cc3F)cc2C(F)(F)F)CC1 [Example I-3],,250 to 1000 nM
"CN1CCN(Cc2ccc(NC(=O)Nc3ccc(-c4nn(C5CC5)c5ccnc(N)c45)cn3)cc2C(F)(F)F)CC1 [Example I-51, 1-(5-(4-amino-1-cyclopropyl-1H-pyrazolo[4,3-c]pyridin-3-yl)pyridin-2-yl)-3-(4-((4-methylpiperazin-1-yl)methyl)-3-(trifluoromethyl)phenyl)urea]",,50 to 250 nM
"Nc1ncnc2c1c(-c1ccc(NC(=O)Nc3ccc(CN4CCOCC4)c(C(F)(F)F)c3)c(F)c1)cn2C1CC1 [Example I-32, 1-(4-(4-amino-7-cyclopropyl-7H-pyrrolo[2,3-d]pyrimidin-5-yl)-2-fluorophenyl)-3-(4-(morpholinomethyl)-3-(trifluoromethyl)phenyl)urea]",,250 to 1000 nM

# — US20240317758A1 (Halia Therapeutics, Inc., priority 2021, published 2024)
